# Results reported in ChEMBL document CHEMBL3885861, “Open TG-GATES”.
# Species on record: Rattus norvegicus
# Test: Open TG-GATES - Regimen: Single
# Assay type: toxicity, organism-based, Sprague-Dawley
# Parameters: regimen Single, gender Male, age 6 weeks
# Conditions: in vivo, po, route gavage; for Fbg / Hb / Ht / Lym / MCH / MCHC / MCV / Mono / Neu / PT / Plat / RBC / Ret / WBC / APTT / Bas / Eos: tissue Blood; for KIDNEY_L / KIDNEY_R / KIDNEY_TOTAL: tissue Kidney; for LIVER: tissue Liver; for A/G / ALP / ALT / AST / BUN / CRE / Ca / Cl / DBIL / GLC / IP / K / LDH / Na / PL / RALB / TBIL / TC / TG / TP / gamma-GTP: tissue Plasma
# [1] = 300 mg/kg, 6 h, dose level Middle
# [2] = 300 mg/kg, 9 h, dose level Middle
# [3] = 300 mg/kg, 24 h, dose level Middle
# [4] = 600 mg/kg, 3 h, dose level High
smiles,measurement,setting,value
O=C1CN(/N=C/c2ccc([N+](=O)[O-])o2)C(=O)N1 [NITROFURANTOIN],Fbg,[1],235.8 mg/dL
same,Hb,[1],13.2 g/dL
same,Ht,[1],40%
same,Lym,[1],70.6%
same,MCH,[1],21.1 pg
same,MCHC,[1],33%
same,MCV,[1],63.9 fL
same,Mono,[1],8%
same,Neu,[1],20%
same,PT,[1],11.7 s
same,Plat,[1],127.7 x10_4/uL
same,RBC,[1],625.2 x10_4/ul
same,Ret,[1],7.7%
same,WBC,[1],80.2 x10_2/uL
same,KIDNEY_L,[1],0.9 g
same,KIDNEY_R,[1],0.9 g
same,KIDNEY_TOTAL,[1],1.9 g
same,LIVER,[1],8.7 g
same,A/G,[1],2.4
same,ALP,[1],1363.8 IU/L
same,ALT,[1],30.6 IU/L
same,AST,[1],63.4 IU/L
same,BUN,[1],10 mg/dL
same,CRE,[1],0.5 mg/dL
same,Ca,[1],11.5 mg/dL
same,Cl,[1],103.8 meq/L
same,DBIL,[1],0.004 mg/dL
same,GLC,[1],192.4 mg/dL
same,IP,[1],9.1 mg/dL
same,K,[1],4.2 meq/L
same,LDH,[1],69 IU/L
same,Na,[1],137.2 meq/L
same,PL,[1],158.2 mg/dL
same,RALB,[1],4.1 g/dL
same,TBIL,[1],0.036 mg/dL
same,TC,[1],113 mg/dL
same,TG,[1],36.2 mg/dL
same,TP,[1],5.8 g/dL
same,gamma-GTP,[1],0.2 IU/L
same,TERMINAL_BW,[2],204.4 g
same,APTT,[2],17 s
same,Bas,[2],0%
same,Eos,[2],1.2%
same,Fbg,[2],234.8 mg/dL
same,Hb,[2],13.3 g/dL
same,Ht,[2],40.4%
same,Lym,[2],70.6%
same,MCH,[2],21.5 pg
same,MCHC,[2],33%
same,MCV,[2],64.9 fL
same,Mono,[2],7.8%
same,Neu,[2],20.6%
same,PT,[2],11.7 s
same,Plat,[2],116.3 x10_4/uL
same,RBC,[2],622.6 x10_4/ul
same,Ret,[2],6.4%
same,WBC,[2],62.7 x10_2/uL
same,KIDNEY_L,[2],0.9 g
same,KIDNEY_R,[2],1 g
same,KIDNEY_TOTAL,[2],1.9 g
same,LIVER,[2],8.9 g
same,A/G,[2],2.2
same,ALP,[2],1126.4 IU/L
same,ALT,[2],29.6 IU/L
same,AST,[2],59.4 IU/L
same,BUN,[2],12.4 mg/dL
same,CRE,[2],0.4 mg/dL
same,Ca,[2],11.4 mg/dL
same,Cl,[2],106 meq/L
same,DBIL,[2],0.008 mg/dL
same,GLC,[2],210 mg/dL
same,IP,[2],8.5 mg/dL
same,K,[2],4.4 meq/L
same,LDH,[2],61.8 IU/L
same,Na,[2],138.6 meq/L
same,PL,[2],143.8 mg/dL
same,RALB,[2],4 g/dL
same,TBIL,[2],0.038 mg/dL
same,TC,[2],88.6 mg/dL
same,TG,[2],62.8 mg/dL
same,TP,[2],5.9 g/dL
same,gamma-GTP,[2],1 IU/L
same,TERMINAL_BW,[3],197.5 g
same,APTT,[3],16 s
same,Bas,[3],0%
same,Eos,[3],1.6%
same,Fbg,[3],229.2 mg/dL
same,Hb,[3],13.8 g/dL
same,Ht,[3],42.2%
same,Lym,[3],82%
same,MCH,[3],21.3 pg
same,MCHC,[3],32.6%
same,MCV,[3],65.3 fL
same,Mono,[3],4.2%
same,Neu,[3],12.2%
same,PT,[3],11.6 s
same,Plat,[3],128 x10_4/uL
same,RBC,[3],647 x10_4/ul
same,Ret,[3],6.2%
same,WBC,[3],69.5 x10_2/uL
same,KIDNEY_L,[3],1 g
same,KIDNEY_R,[3],1 g
same,KIDNEY_TOTAL,[3],2.1 g
same,LIVER,[3],8.1 g
same,A/G,[3],2.2
same,ALP,[3],1379.2 IU/L
same,ALT,[3],32.6 IU/L
same,AST,[3],62.6 IU/L
same,BUN,[3],15.4 mg/dL
same,CRE,[3],0.4 mg/dL
same,Ca,[3],11.1 mg/dL
same,Cl,[3],107.8 meq/L
same,DBIL,[3],0.01 mg/dL
same,GLC,[3],194.2 mg/dL
same,IP,[3],9.1 mg/dL
same,K,[3],4.6 meq/L
same,LDH,[3],73.4 IU/L
same,Na,[3],140.8 meq/L
same,PL,[3],150.8 mg/dL
same,RALB,[3],3.8 g/dL
same,TBIL,[3],0.028 mg/dL
same,TC,[3],85.8 mg/dL
same,TG,[3],118.6 mg/dL
same,TP,[3],5.6 g/dL
same,gamma-GTP,[3],0 IU/L
same,TERMINAL_BW,[4],206.4 g
same,APTT,[4],16.4 s
same,Bas,[4],0%
same,Eos,[4],1%
same,Fbg,[4],233.2 mg/dL
same,Hb,[4],13.2 g/dL
same,Ht,[4],40.3%
same,Lym,[4],71%
same,MCH,[4],21.1 pg
same,MCHC,[4],32.8%
same,MCV,[4],64.4 fL
same,Mono,[4],6.4%
same,Neu,[4],22.4%
same,PT,[4],12.1 s
same,Plat,[4],121.3 x10_4/uL
same,RBC,[4],625.6 x10_4/ul
same,Ret,[4],7.8%
same,WBC,[4],72.9 x10_2/uL
same,KIDNEY_L,[4],0.9 g
same,KIDNEY_R,[4],1 g
same,KIDNEY_TOTAL,[4],1.9 g
same,LIVER,[4],8.8 g
same,A/G,[4],2.2
